Data: PubChem BioAssay AID2060907 (Molecular Pharmacology Branch, DTP, NCI, 2025)
pIC50: −log10 of the molar value.

System: 388556-164-R-J1-PDC complex spheroid viability
Experiment: Anticancer human tumor 388556-164-R-J1-PDC patient-derived colon adenocarcinoma cell line growth inhibition [RAS]
Settings: for pIC50: curve of first compound; for viability, T/C: stronger effect = lower value
Outline: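 Tumour cells grown as complex spheroids with HUVEC endothelial cells and mesenchymal stem cells, treated with RAS pathway inhibitor combinations. Each agent spans half-log steps from near clinical Cmax, or 10 microM where Cmax is unknown.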

[1] = second compound 0.000949 µM, first compound 0.0316 µM
[2] = second compound 0.000949 µM, first compound 0.1 µM
[3] = second compound 0.000949 µM, first compound 0.316 µM
[4] = second compound 0.000949 µM, first compound 1 µM
[5] = second compound 0.000949 µM, first compound 3.16 µM
[6] = second compound 0.000949 µM, first compound 10 µM
[7] = second compound 0.003 µM, first compound 0.0316 µM
[8] = second compound 0.003 µM, first compound 0.1 µM
[9] = second compound 0.003 µM, first compound 0.316 µM
[10] = second compound 0.003 µM, first compound 1 µM
[11] = second compound 0.003 µM, first compound 3.16 µM
[12] = second compound 0.003 µM, first compound 10 µM
[13] = second compound 0.00949 µM, first compound 0.0316 µM
[14] = second compound 0.00949 µM, first compound 0.1 µM
[15] = second compound 0.00949 µM, first compound 0.316 µM
[16] = second compound 0.00949 µM, first compound 1 µM
[17] = second compound 0.00949 µM, first compound 3.16 µM
[18] = second compound 0.00949 µM, first compound 10 µM
[19] = second compound 0.03 µM, first compound 0.0316 µM
[20] = second compound 0.03 µM, first compound 0.1 µM
[21] = second compound 0.03 µM, first compound 0.316 µM
[22] = second compound 0.03 µM, first compound 1 µM
[23] = second compound 0.03 µM, first compound 3.16 µM
[24] = second compound 0.03 µM, first compound 10 µM
[25] = second compound 0.0949 µM, first compound 0.0316 µM
[26] = second compound 0.0949 µM, first compound 0.1 µM
[27] = second compound 0.0949 µM, first compound 0.316 µM
[28] = second compound 0.0949 µM, first compound 1 µM
[29] = second compound 0.0949 µM, first compound 3.16 µM
[30] = second compound 0.0949 µM, first compound 10 µM
[31] = second compound 0.3 µM, first compound 0.0316 µM
[32] = second compound 0.3 µM, first compound 0.1 µM
[33] = second compound 0.3 µM, first compound 0.316 µM
[34] = second compound 0.3 µM, first compound 1 µM
[35] = second compound 0.3 µM, first compound 3.16 µM
[36] = second compound 0.3 µM, first compound 10 µM
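Further: spheroids exposed to compound for 7 days before readout.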
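Wherever viability, T/C is given: 100% = DMSO vehicle control luminescence.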

## CC(=O)OC12COC1CC(O)C1(C)C(=O)C(O)C3=C(C)C(OC(=O)C(O)C(NC(=O)OC(C)(C)C)c4ccccc4)CC(O)(C(OC(=O)c4ccccc4)C21)C3(C)C (stereo unspecified) + CCn1c(-c2cc(N3CCN(C)CC3)cnc2C(C)OC)c2c3cc(ccc31)-c1csc(n1)CC(NC(=O)C1CC1C)C(=O)N1CCCC(N1)C(=O)OCC(C)(C)C2
Second compound 0.000949 µM
  pIC50: < 5.00
Second compound 0.003 µM
  pIC50: < 5.00
Second compound 0.00949 µM
  pIC50: 6.29
Second compound 0.03 µM
  pIC50: > 7.50
Second compound 0.0949 µM
  pIC50: > 7.50
Second compound 0.3 µM
  pIC50: > 7.50
[1]
  viability, T/C: 77.2%
[2]
  viability, T/C: 63.2%
[3]
  viability, T/C: 63.7%
[4]
  viability, T/C: 66.1%
[5]
  viability, T/C: 69.2%
[6]
  viability, T/C: 59.6%
[7]
  viability, T/C: 76.4%
[8]
  viability, T/C: 61.6%
[9]
  viability, T/C: 54%
[10]
  viability, T/C: 59.1%
[11]
  viability, T/C: 55.1%
[12]
  viability, T/C: 50.4%
[13]
  viability, T/C: 65.3%
[14]
  viability, T/C: 57.1%
[15]
  viability, T/C: 52.8%
[16]
  viability, T/C: 43.9%
[17]
  viability, T/C: 50.4%
[18]
  viability, T/C: 41.2%
[19]
  viability, T/C: 46.9%
[20]
  viability, T/C: 42.3%
[21]
  viability, T/C: 40.1%
[22]
  viability, T/C: 44.1%
[23]
  viability, T/C: 41.2%
[24]
  viability, T/C: 32%
[25]
  viability, T/C: 44.1%
[26]
  viability, T/C: 34.9%
[27]
  viability, T/C: 34.9%
[28]
  viability, T/C: 32.4%
[29]
  viability, T/C: 31.1%
[30]
  viability, T/C: 25.4%
[31]
  viability, T/C: 27.4%
[32]
  viability, T/C: 27.9%
[33]
  viability, T/C: 28%
[34]
  viability, T/C: 30.1%
[35]
  viability, T/C: 27.8%
[36]
  viability, T/C: 24.4%

## C=CC(=O)Nc1cc(Nc2nccc(-c3cn(C)c4ccccc34)n2)c(OC)cc1N(C)CCN(C)C + C=CC(=O)N1CCN(c2nc(OCC3CCCN3C)nc3c(F)c(-c4nc(N)cc(C)c4C(F)(F)F)c(Cl)cc23)C(C)C1
Second compound 0.00316 µM
  pIC50: < 6.00
Second compound 0.01 µM
  pIC50: < 6.00
Second compound 0.0316 µM
  pIC50: < 6.00
Second compound 0.1 µM
  pIC50: < 6.00
Second compound 0.316 µM
  pIC50: < 6.00
Second compound 1 µM
  pIC50: < 6.00
Second compound 0.00316 µM, first compound 0.00316 µM
  viability, T/C: 110%
Second compound 0.00316 µM, first compound 0.01 µM
  viability, T/C: 99.2%
Second compound 0.00316 µM, first compound 0.0316 µM
  viability, T/C: 92.6%
Second compound 0.00316 µM, first compound 0.1 µM
  viability, T/C: 80.3%
Second compound 0.00316 µM, first compound 0.316 µM
  viability, T/C: 68.6%
Second compound 0.00316 µM, first compound 1 µM
  viability, T/C: 52.8%
Second compound 0.01 µM, first compound 0.00316 µM
  viability, T/C: 104%
Second compound 0.01 µM, first compound 0.01 µM
  viability, T/C: 103%
Second compound 0.01 µM, first compound 0.0316 µM
  viability, T/C: 101%
Second compound 0.01 µM, first compound 0.1 µM
  viability, T/C: 90.1%
Second compound 0.01 µM, first compound 0.316 µM
  viability, T/C: 68.4%
Second compound 0.01 µM, first compound 1 µM
  viability, T/C: 58%
Second compound 0.0316 µM, first compound 0.00316 µM
  viability, T/C: 102%
Second compound 0.0316 µM, first compound 0.01 µM
  viability, T/C: 99%
Second compound 0.0316 µM, first compound 0.0316 µM
  viability, T/C: 94%
Second compound 0.0316 µM, first compound 0.1 µM
  viability, T/C: 87.3%
Second compound 0.0316 µM, first compound 0.316 µM
  viability, T/C: 70.3%
Second compound 0.0316 µM, first compound 1 µM
  viability, T/C: 61.2%
Second compound 0.1 µM, first compound 0.00316 µM
  viability, T/C: 100%
Second compound 0.1 µM, first compound 0.01 µM
  viability, T/C: 99.4%
Second compound 0.1 µM, first compound 0.0316 µM
  viability, T/C: 91.1%
Second compound 0.1 µM, first compound 0.1 µM
  viability, T/C: 90.6%
Second compound 0.1 µM, first compound 0.316 µM
  viability, T/C: 72.9%
Second compound 0.1 µM, first compound 1 µM
  viability, T/C: 54.6%
Second compound 0.316 µM, first compound 0.00316 µM
  viability, T/C: 99.2%
Second compound 0.316 µM, first compound 0.01 µM
  viability, T/C: 110%
Second compound 0.316 µM, first compound 0.0316 µM
  viability, T/C: 103%
Second compound 0.316 µM, first compound 0.1 µM
  viability, T/C: 94.5%
Second compound 0.316 µM, first compound 0.316 µM
  viability, T/C: 76.1%
Second compound 0.316 µM, first compound 1 µM
  viability, T/C: 58.8%
Second compound 1 µM, first compound 0.00316 µM
  viability, T/C: 90.6%
Second compound 1 µM, first compound 0.01 µM
  viability, T/C: 100%
Second compound 1 µM, first compound 0.0316 µM
  viability, T/C: 93.5%
Second compound 1 µM, first compound 0.1 µM
  viability, T/C: 96.4%
Second compound 1 µM, first compound 0.316 µM
  viability, T/C: 73.3%
Second compound 1 µM, first compound 1 µM
  viability, T/C: 54.9%

## NC1c2ccccc2OC12CCN(c1cnc3c(N4CCCc5ncccc54)n[nH]c3n1)CC2 (stereo unspecified) + CCn1c(-c2cc(N3CCN(C)CC3)cnc2C(C)OC)c2c3cc(ccc31)-c1csc(n1)CC(NC(=O)C1CC1C)C(=O)N1CCCC(N1)C(=O)OCC(C)(C)C2
Second compound 0.000949 µM
  pIC50: 6.97
Second compound 0.003 µM
  pIC50: 6.94
Second compound 0.00949 µM
  pIC50: 7.32
Second compound 0.03 µM
  pIC50: > 7.50
Second compound 0.0949 µM
  pIC50: > 7.50
Second compound 0.3 µM
  pIC50: > 7.50
[1]
  viability, T/C: 64.5%
[2]
  viability, T/C: 50.1%
[3]
  viability, T/C: 39%
[4]
  viability, T/C: 39.8%
[5]
  viability, T/C: 30.3%
[6]
  viability, T/C: 29.1%
[7]
  viability, T/C: 63%
[8]
  viability, T/C: 52%
[9]
  viability, T/C: 39.2%
[10]
  viability, T/C: 30.3%
[11]
  viability, T/C: 27.7%
[12]
  viability, T/C: 22.6%
[13]
  viability, T/C: 54.3%
[14]
  viability, T/C: 43.1%
[15]
  viability, T/C: 30.6%
[16]
  viability, T/C: 24.3%
[17]
  viability, T/C: 23.8%
[18]
  viability, T/C: 21.9%
[19]
  viability, T/C: 35.7%
[20]
  viability, T/C: 29.9%
[21]
  viability, T/C: 26.3%
[22]
  viability, T/C: 22.5%
[23]
  viability, T/C: 20.5%
[24]
  viability, T/C: 18.6%
[25]
  viability, T/C: 32.3%
[26]
  viability, T/C: 27.8%
[27]
  viability, T/C: 22.5%
[28]
  viability, T/C: 20.8%
[29]
  viability, T/C: 22.4%
[30]
  viability, T/C: 19.1%
[31]
  viability, T/C: 27.5%
[32]
  viability, T/C: 23.8%
[33]
  viability, T/C: 23.3%
[34]
  viability, T/C: 21.3%
[35]
  viability, T/C: 22.2%
[36]
  viability, T/C: 21.9%
